The results in this text go back to patent EP4711355A1, “CRYSTAL FORM OF LIPOPROTEIN COMPOUND AND PREPARATION METHOD THEREFOR” (Jiangsu Hengrui Pharmaceuticals Co., Ltd., priority 2023, dated 2024).

The term AUC denotes concentration integrated over time.

Series [1] in a line: In vivo pharmacokinetic study in beagle dogs. The following applies: male, dog, plasma, po, gavage, 10 mg/kg. As for the experimental part: With beagle dogs as test animals, the drug concentration in the plasma of beagle dogs at different time points after oral administration of the compound of the present disclosure was determined by using LC/MS/MS. The pharmacokinetic behavior of the compound of the present disclosure in beagle dogs was studied to evaluate its pharmacokinetic characteristics.
Experimental animals: 2 healthy male beagle dogs aged 8 to 36 months per group
Drug preparation: A certain amount of drug was weighed and prepared into a 2 mg/mL colorless clear solution with normal saline.
Administration: Beagle dogs were fasted overnight and administered with the drug by gavage. The dosage of reference 1 and the compound of Example 6 was both 10 mg/kg.
Procedure: Beagle dogs were administered by gavage with the compound of the present disclosure. Approximately 0.6 mL of blood was collected by peripheral venipuncture at 0.25, 0.5, 1, 2, 4, 6, 8, and 24 h after administration. The blood was placed in a tube containing EDTA-K2 and centrifuged at 2000 rpm for 10 min at approximately 4°C to separate the plasma, which was then stored at -75°C.
Determination of the content of the test compound in beagle dog plasma at different blood collection time points: 33 µL of beagle dog plasma (30 µL plasma and 3 µL blank) collected at each time point after administration was added to 18 µL of 6% perchloric acid solution, vortexed for 30 s, and centrifuged at 3900 rpm at 4°C for 15 min. Then, 200 µL of alkaline (pH 10-11 as adjusted with ammonia water) acetonitrile solution containing internal standard dexamethasone was added to precipitate the protein. The mixture was vortexed for 30 s and centrifuged at 3900 rpm at 4°C for 15 min. The supernatant of the plasma sample was taken, diluted 3-fold with water, and 8 µL was taken for LC/MS/MS analysis.
After the blood drug concentration was determined by LC/MS/MS analysis, the pharmacokinetic parameters were calculated using WinNonlin 6.1 software and the non-compartmental model method. Table 1 Pharmacokinetic parameters of the compounds of the present disclosure in beagle dogs

Series [2] is described as follows: Long-term accelerated stability test (Test Example 4), sealed in aluminum foil bag (nitrogen-filled). In kind it is physicochemical.
Series [3] is described as follows: Long-term accelerated stability test (Test Example 3), sealed in aluminum foil bags. The class given is physicochemical. The following applies: for physicochemical stability: 25°C/60%RH and 40°C/75%RH for 6 months.
Series [4] is described as follows: DVS hygroscopicity test (dynamic moisture sorption). The following applies: at 80% RH; listed as hydrochloride crystal form a. In kind it is physicochemical. As for the experimental part: DVS stands for dynamic moisture sorption: using the Surface Measurement Systems instrument, humidity started at 50% and the humidity range investigated was 0%-95% with a step of 10%. The judgment standard is that the mass change of each gradient dM/dT is ≤ 0.002%, TMAX is 360 min, and there are two cycles.

Each structure is given as a SMILES string. Where a name gives a salt, the structure may show the parent alone.

In the case of `Cl.Cl.Cl.Cl.O=C(O)[C@@H](Cc1cccc(CN(CCOc2cccc(C[C@H](C(=O)O)[C@H]3CCNC3)c2)Cc2cccc(C[C@H](C(=O)O)[C@H]3CCNC3)c2)c1)[C@H]1CCNC1` [Compound A hydrochloride, (2S)-3-(3-{[(2-{3-[(2S)-2-carboxyl-2-[(3R)-pyrrolidin-3-yl]ethyl]phenoxy}ethyl)({3-[(2S)-2-carboxyl-2-[(3R)-pyrrolidin-3-yl]ethyl]phenyl}methyl)amino]methyl}phenyl)-2-[(3R)-pyrrolidin-3-yl]propionic acid tetrahydrochloride], the AUC in series [1] (read-out: Area under curve AUC) was found to be 28600 ng·h/mL. Moreover, the half-life in series [1] (read-out: Half life T1/2 (converted)) is 18.3 h. For the same molecule, the Cmax in series [1] (read-out: Maximum blood concentration Cmax) was found to be 2470 ng/mL.

As to `O=C(O)[C@@H](Cc1cccc(CN(CCOc2cccc(C[C@H](C(=O)O)[C@H]3CCNC3)c2)Cc2cccc(C[C@H](C(=O)O)[C@H]3CCNC3)c2)c1)[C@H]1CCNC1` [free crystal form C, (2S)-3-(3-{[(2-{3-[(2S)-2-carboxyl-2-[(3R)-pyrrolidin-3-yl]ethyl]phenoxy}ethyl)({3-[(2S)-2-carboxyl-2-[(3R)-pyrrolidin-3-yl]ethyl]phenyl}methyl)amino]methyl}phenyl)-2-[(3R)-pyrrolidin-3-yl]propionic acid], the Crystal form result in series [2] (0 day) was “Crystal form C”; in series [2] (25°C-60%RH, 1 month) it was “Unchanged”; in series [2] (25°C-60%RH, 3 months) it was “Unchanged”; in series [2] (25°C-60%RH, 6 months) it was “Unchanged”; in series [2] (25°C-60%RH, 7 days), “Unchanged”; in series [2] (25°C-60%RH, 14 days), “Unchanged”. The Crystal form result in series [2] (40°C-75%RH, 1 month) is on record as “Unchanged”; in series [2] (40°C-75%RH, 3 months), “Unchanged”; in series [2] (40°C-75%RH, 6 months) it was “Unchanged”; in series [2] (40°C-75%RH, 7 days) it was “Unchanged”; in series [2] (40°C-75%RH, 14 days), “Unchanged”. Further, the “Purity (%)” value in series [2] (0 day) is listed as 99.8%; in series [2] (25°C-60%RH, 1 month), 99.8%; in series [2] (25°C-60%RH, 3 months) it was 99.7%; in series [2] (25°C-60%RH, 6 months), 99.7%; in series [2] (25°C-60%RH, 7 days), 99.8%; in series [2] (25°C-60%RH, 14 days) it was 99.8%. The “Purity (%)” value in series [2] (40°C-75%RH, 1 month) was 99.8%; in series [2] (40°C-75%RH, 3 months), 99.3%; in series [2] (40°C-75%RH, 6 months) it was 99.3%; in series [2] (40°C-75%RH, 7 days), 99.8%; in series [2] (40°C-75%RH, 14 days), 99.8%. In addition, in series [2] (25°C/60%RH and 40°C/75%RH for 6 months), the physicochemical stability result is recorded as “good”.

Regarding `O=C(O)[C@@H](Cc1cccc(CN(CCOc2cccc(C[C@H](C(=O)O)[C@H]3CCNC3)c2)Cc2cccc(C[C@H](C(=O)O)[C@H]3CCNC3)c2)c1)[C@H]1CCNC1` [hydrochloride (1:1) amorphous form, (2S)-3-(3-{[(2-{3-[(2S)-2-carboxyl-2-[(3R)-pyrrolidin-3-yl]ethyl]phenoxy}ethyl)({3-[(2S)-2-carboxyl-2-[(3R)-pyrrolidin-3-yl]ethyl]phenyl}methyl)amino]methyl}phenyl)-2-[(3R)-pyrrolidin-3-yl]propionic acid], the Crystal form entry in series [3] (0 day) is “Amorphous form”; in series [3] (25°C-60%RH, 1 month), “Crystal form a”; in series [3] (25°C-60%RH, 2 months), “Crystal form a”; in series [3] (25°C-60%RH, 3 months), “Crystal form a”; in series [3] (25°C-60%RH, 7 days), “Unchanged”; in series [3] (25°C-60%RH, 14 days) it was “Unchanged”. For the same molecule, the Crystal form result in series [3] (40°C-75%RH, 1 month) is “Crystal form a”; in series [3] (40°C-75%RH, 2 months), “Crystal form a”; in series [3] (40°C-75%RH, 3 months), “Crystal form a”; in series [3] (40°C-75%RH, 7 days), “Crystal form a”; in series [3] (40°C-75%RH, 14 days), “Crystal form a”. For the same molecule, the “Purity (%)” value in series [3] (0 day) amounted to 98.8%; in series [3] (25°C-60%RH, 1 month), 98.7%; in series [3] (25°C-60%RH, 2 months), 98.6%; in series [3] (25°C-60%RH, 3 months), 98.2%; in series [3] (25°C-60%RH, 7 days), 98.8%; in series [3] (25°C-60%RH, 14 days) it was 98.8%. For the same molecule, the “Purity (%)” value in series [3] (40°C-75%RH, 1 month) amounted to 97.6%; in series [3] (40°C-75%RH, 2 months), 95.6%; in series [3] (40°C-75%RH, 3 months), 95.3%; in series [3] (40°C-75%RH, 7 days), 98.3%; in series [3] (40°C-75%RH, 14 days), 98.1%. In addition, the physicochemical stability entry in series [3] is recorded as “slightly less stable”.

For the molecule `O=C(O)[C@@H](Cc1cccc(CN(CCOc2cccc(C[C@H](C(=O)O)[C@H]3CCNC3)c2)Cc2cccc(C[C@H](C(=O)O)[C@H]3CCNC3)c2)c1)[C@H]1CCNC1` [hydrochloride (1:1) crystal form a, (2S)-3-(3-{[(2-{3-[(2S)-2-carboxyl-2-[(3R)-pyrrolidin-3-yl]ethyl]phenoxy}ethyl)({3-[(2S)-2-carboxyl-2-[(3R)-pyrrolidin-3-yl]ethyl]phenyl}methyl)amino]methyl}phenyl)-2-[(3R)-pyrrolidin-3-yl]propionic acid], the Crystal form entry in series [3] (0 day) is “Hydrochloride crystal form a”; in series [3] (25°C-60%RH, 1 month), “Unchanged”; in series [3] (25°C-60%RH, 3 months) it was “Deliquescent”; in series [3] (25°C-60%RH, 6 months), “Deliquescent”; in series [3] (25°C-60%RH, 7 days), “Unchanged”; in series [3] (25°C-60%RH, 14 days) it was “Unchanged”. For the same molecule, the Crystal form entry in series [3] (40°C-75%RH, 1 month) is “Deliquescent”; in series [3] (40°C-75%RH, 3 months), “Deliquescent”; in series [3] (40°C-75%RH, 6 months), “Deliquescent”; in series [3] (40°C-75%RH, 7 days), “Unchanged”; in series [3] (40°C-75%RH, 14 days) it was “Unchanged”. Also, the “Purity (%)” value in series [3] (0 day) worked out at 99.9%; in series [3] (25°C-60%RH, 1 month), 99.9%; in series [3] (25°C-60%RH, 3 months), 99.7%; in series [3] (25°C-60%RH, 6 months), 98.5%; in series [3] (25°C-60%RH, 7 days) it was 99.9%; in series [3] (25°C-60%RH, 14 days), 99.9%. Moreover, the “Purity (%)” value in series [3] (40°C-75%RH, 1 month) was found to be 97.7%; in series [3] (40°C-75%RH, 3 months) it was 95.2%; in series [3] (40°C-75%RH, 6 months), 94.8%; in series [3] (40°C-75%RH, 7 days), 99.8%; in series [3] (40°C-75%RH, 14 days), 98.8%. Further, the physicochemical stability entry in series [3] was “slightly less stable”. The “DVS hygroscopicity weight gain” value in series [4] came to 30%.

With `Cl.Cl.Cl.Cl.O=C(O)[C@@H](Cc1cccc(CN(CCOc2cccc(C[C@H](C(=O)O)[C@H]3CCNC3)c2)Cc2cccc(C[C@H](C(=O)O)[C@H]3CCNC3)c2)c1)[C@H]1CCNC1` [hydrochloride (1:4) amorphous form, (2S)-3-(3-{[(2-{3-[(2S)-2-carboxyl-2-[(3R)-pyrrolidin-3-yl]ethyl]phenoxy}ethyl)({3-[(2S)-2-carboxyl-2-[(3R)-pyrrolidin-3-yl]ethyl]phenyl}methyl)amino]methyl}phenyl)-2-[(3R)-pyrrolidin-3-yl]propionic acid tetrahydrochloride], the Crystal form result in series [3] (0 day) is “Amorphous form”; in series [3] (25°C-60%RH, 1 month) it was “Unchanged”; in series [3] (25°C-60%RH, 2 months), “Deliquescent”; in series [3] (25°C-60%RH, 3 months), “Deliquescent”; in series [3] (25°C-60%RH, 6 months) it was “Deliquescent”; in series [3] (25°C-60%RH, 7 days), “Unchanged”. Besides, the Crystal form result is reported as “Unchanged” in series [3] (25°C-60%RH, 14 days); “Deliquescent” in series [3] (40°C-75%RH, 1 month); “Deliquescent” in series [3] (40°C-75%RH, 2 months); “Deliquescent” in series [3] (40°C-75%RH, 3 months); “Deliquescent” in series [3] (40°C-75%RH, 6 months); “Unchanged” in series [3] (40°C-75%RH, 7 days). Further, the Crystal form entry in series [3] (40°C-75%RH, 14 days) was “Unchanged”. The “Purity (%)” value in series [3] (0 day) was 99.8%; in series [3] (25°C-60%RH, 1 month), 99.8%; in series [3] (25°C-60%RH, 2 months), 99.8%; in series [3] (25°C-60%RH, 3 months) it was 99.8%; in series [3] (25°C-60%RH, 6 months), 99.8%; in series [3] (25°C-60%RH, 7 days), 99.8%. Moreover, the “Purity (%)” value in series [3] (25°C-60%RH, 14 days) is given as 99.8%; in series [3] (40°C-75%RH, 1 month), 99.8%; in series [3] (40°C-75%RH, 2 months), 99.8%; in series [3] (40°C-75%RH, 3 months) it was 99.8%; in series [3] (40°C-75%RH, 6 months), 99.8%; in series [3] (40°C-75%RH, 7 days), 99.8%. For the same molecule, the “Purity (%)” value in series [3] (40°C-75%RH, 14 days) was determined as 99.8%. Besides, in series [3], the physicochemical stability result is “slightly less stable”.
